In publication PMC12410356 (International Journal for Parasitology: Drugs and Drug …, 2025):
Where two headings read alike, the source gives them in different places.

How the values were obtained:
[1] = tested on: E. multilocularis metacestode vesicles; settings: PGI release after five days; ref Rufener et al., 2018; cited from earlier work
[2] = tested on: Reuber rat hepatoma (RH) cells; settings: ref Rufener et al., 2018, cited from earlier work
[3] = tested on: E. multilocularis metacestode vesicles; assay: Metacestode vesicle viability assay (ATP, CellTiter-Glo); format: cell-based, Echinococcus multilocularis; settings: for viability at 10 µM: Echinococcus multilocularis, 288 h; for effect on metacestode vesicle viability (in words): twelve days, cut-off viability ≤30 %
Experimental: Viability was assessed after 12 days using the same metacestode vesicles as for the PGI release assay. Triton X-100 was added to each well to a final concentration of 0.1 %. Subsequently the metacestode vesicles were broken mechanically and 50 μL of the supernatant was mixed with 50 μL of CellTiter-Glo® buffer (Promega, Dübendorf, Switzerland). Measurements were performed on a HIDEX Sense microplate reader.

[4] = tested on: E. multilocularis GL cells; assay: Germinal layer cell viability assay (CellTiter-Glo); format: cell-based, Echinococcus multilocularis; settings: for effect on GL cell viability (in words): 80 to 0.31 μM, 5 days
Experimental: The isolation of GL cells was conducted according to ([Kaethner et al., 2023]). Briefly, conditioned DMEM (cDMEM) was prepared prior to isolation. For the preparation of cDMEM, 1 × 10^6 RH cells and 10 × 10^6 RH cells incubated in DMEM supplemented with 10 % FBS, penicillin (100 U/mL), streptomycin (100 μg/mL) and tetracycline (5 μg/mL) for six or four days, respectively, at 37 °C under a humid, 5 % CO2 atmosphere. The supernatant of each was mixed 1:1 and sterile filtrated, resulting in cDMEM. Metacestode vesicles of at least 6 months of age were washed with PBS, incubated in distilled H2O for 2.5 min and subsequently mechanically disrupted. The resulting pellet was resuspended in 7 vol of pre-warmed 0.05 % Trypsin/0.02 % EDTA and incubated at 37 °C for 30 min. GL cells were extracted from the laminated layer by vigorous shaking followed by filtration through a 30 μm mesh (Sefar AG, Heiden, Switzerland) and separated from calcareous corpuscles by short centrifugation at 50×g for 30 s at RT. The isolated cells were centrifuged for 10 min at 600×g and RT and the pellet was resuspended in cDMEM. The cell suspension was diluted 1:100 in PBS to measure the OD600. An OD600 value of 0.1 of this dilution was defined as one arbitrary unit (AU) per μL of the undiluted cell suspension corresponding to 0.97 ± 0.11 μg of total protein for the GL cells as measured via Pierce™ bicinchoninic acid (BCA) Protein Assay Kit according to the manufacturer's protocol (Fisher Scientific AG, Reinach, Switzerland). 1′000 AU per 5 mL of cDMEM were cultured at 37 °C overnight under a humid nitrogen atmosphere. The next day, 2′000 AU of GL cells were combined and further cultured for 3 h at 37 °C under a humid nitrogen atmosphere before they were used for further experiments.
To assess effects of compounds on the cell viability of isolated E. multilocularis GL cells, the protocol was applied as previously described ([Kaethner et al., 2023]). In short, 15 AU of GL cells were distributed into each well of a black 384-well plate. Compounds dissolved in DMSO (alexidine, carbendazim, ESI-09, MMV1581545 and oxfendazole) were added to final concentrations ranging from 80 to 0.31 μM (1:2 serial dilution) and the cells were cultured for 5 days at 37 °C under a humid, microaerobic atmosphere (85 % N2, 10 % CO2, 5 % O2). DMSO with the respective concentration was used as a solvent control. Viability was measured using the CellTiter-Glo® kit. Luminescence was measured using a HIDEX Sense microplate reader. Measurements were done in quadruplicates and represented as relative viability of the DMSO controls. IC50 values were calculated in R applying the five parameter logistic model for three independent experiments ([Ritler et al., 2020]).

[5] = tested on: Reuber rat hepatoma (RH) cells; assay: Mammalian cell toxicity, resazurin assay; format: cell-based; settings: for IC50: 5 days incubation, mean ± SD
Experimental: Mammalian cell toxicity on RH cells was measured as described in [Rufener et al. (2018)] with few alterations. Briefly, confluent (50′000 cells/well) and pre-confluent (5′000 cells/well) were seeded into 96-well plates in DMEM supplemented with 10 % FBS, penicillin (100 U/mL), streptomycin (100 μg/mL) and tetracycline (5 μg/mL) and incubated at 37 °C under a humid, 5 % CO2 atmosphere for 24 h and 5 h respectively. Alexidine, ESI-09 and MMV1581545 were added to final concentrations ranging from 120 to 0.49 μM (1:3 serial dilution) to each well and then cells were incubated at 37 °C under a humid, 5 % CO2 atmosphere for 5 days. To measure viability, the medium was removed, 180 μL of PBS was added to the cells and resazurin was added to each well to a final concentration of 10 mg/L. The cells were then allowed to process the resazurin at RT for 1 h. Fluorescence was measured on a HIDEX Sense microplate reader. Measurements were performed in triplicates and IC50 values were calculated in R using the three parameter Weibull type 1 model for three independent experiments ([Ritler et al., 2020]).

[6] = tested on: E. multilocularis metacestode vesicles; assay: Phosphoglucose isomerase (PGI) release assay (damage-marker release) on metacestode vesicles; format: cell-based, Echinococcus multilocularis; settings: 10 μM; for PGI d5 (relative PGI release): 5 days; for PGI d12 (relative PGI release): 12 days; for activity in the PGI release assay (in words): twelve days, cut-off PGI release ≥20 %
[7] = confluent, read-out: IC50 confluent RH cells
[8] = pre-confluent, read-out: IC50 pre-confluent RH cells
[9] = confirmation screen, 10 μM, triplicates, mean, 12 days, read-out: Viability d12 (relative viability)
[10] = overview screen, 10 μM, singlets, 12 days, relative to DMSO control, read-out: Viability d12 (relative viability)
[11] = confirmation screen, triplicates, mean
[12] = overview screen, singlets, relative to 0.1 % Triton X-100, DMSO subtracted
[13] = overview screen, 10 μM, singlets, 12 days, relative to DMSO control

SMILES: Cc1[nH]c2cc(F)cc(F)c2c(=O)c1-c1ccc(Oc2ccc(OC(F)(F)F)cc2)cc1 [ELQ-400]
- IC50 [1]: 0.02 ± 0.01 µM
- IC50 [2, 7]: 2.07 ± 1.67 µM
- IC50 [2, 8]: 0.25 ± 0.11 µM

SMILES: Cc1cc(O)c2c(c1)C(=O)c1c(I)c(C)c(I)c(O)c1C2=O [MMV1581545]
- viability at 10 µM [3, 9]: 19.1%
- viability at 10 µM [3, 10]: 16.4%
- effect on GL cell viability (in words) [4]: highly effective
- IC50 ([4]; Echinococcus multilocularis, 120 h, 5 days incubation, microaerobic, mean ± SD of three independent experiments): 7.89 ± 1.43 µM
- toxicity against mammalian cell line (in words) ([5]; RH cells counter-screen): moderate toxicity
- IC50 ([5]; Rattus norvegicus, 120 h, confluent, read-out: IC50 confluent RH cells): 21.3 ± 4.39 µM
- IC50 ([5]; Rattus norvegicus, 120 h, pre-confluent, read-out: IC50 pre-confluent RH cells): 13.8 ± 1.09 µM
- IC50 [5, 8]: 14.7 ± 2.09 µM
- PGI d5 (relative PGI release) [6, 11]: 10.14%
- PGI d12 (relative PGI release) [6, 11]: 30.09%
- PGI d5 (relative PGI release) [6, 12]: 18.0887%
- PGI d12 (relative PGI release) [6, 12]: 27.8991%

SMILES: O=C(NC(=O)N1CCCc2ccccc21)c1cccc(Cl)c1 [MMV1782351]
- Viability d12 (relative viability) [3, 13]: 118.649%
- PGI d5 (relative PGI release) [6, 12]: -2.457%
- PGI d12 (relative PGI release) [6, 12]: -24.682%

SMILES: O=C(O)COc1cccc2c1CC[C@](O)(COC(=O)N(c1ccccc1)c1ccccc1)C2 [MMV1782352]
- Viability d12 (relative viability) [3, 13]: 68.1339%
- PGI d5 (relative PGI release) [6, 12]: -0.08001%
- PGI d12 (relative PGI release) [6, 12]: -0.2818%

SMILES: CC(C)(C)NC(=O)[C@@H]1CN(Cc2cnc3occc3c2)CCN1C[C@@H](O)C[C@@H](Cc1ccccc1)C(=O)N[C@H]1c2ccccc2C[C@H]1O [MMV1782353]
- Viability d12 (relative viability) [3, 13]: 92.6641%
- PGI d5 (relative PGI release) [6, 12]: 0.2673%
- PGI d12 (relative PGI release) [6, 12]: -0.3369%

SMILES: Cc1cc(-c2ccccc2)c(C(=O)C(=O)Nc2ccc(N3CCN(c4ncc(F)cn4)CC3)cc2)n1C [MMV1782354]
- Viability d12 (relative viability) [3, 13]: 36.0707%
- PGI d5 (relative PGI release) [6, 12]: 1.821%
- PGI d12 (relative PGI release) [6, 12]: -11.1929%

SMILES: Nc1nc2c(Cc3cccnc3)c[nH]c2c(=O)[nH]1 [MMV1782355]
- Viability d12 (relative viability) [3, 13]: 81.2481%
- PGI d5 (relative PGI release) [6, 12]: -0.9111%
- PGI d12 (relative PGI release) [6, 12]: 0.236%

SMILES: CN(O)C(=O)c1cc2c(CN3CCC[C@H]3C(N)=O)cn(Cc3ccc(F)cc3)c2cn1 [MMV1782386]
- Viability d12 (relative viability) [3, 13]: 103.448%
- PGI d5 (relative PGI release) [6, 12]: 0.7573%
- PGI d12 (relative PGI release) [6, 12]: -1.18%

SMILES: COC(=O)Nc1nc2c(C)cccc2[nH]1 [MMV1782387]
- Viability d12 (relative viability) [3, 13]: 91.1788%
- PGI d5 (relative PGI release) [6, 12]: -0.1734%
- PGI d12 (relative PGI release) [6, 12]: -20.8652%

SMILES: CNc1nc(=O)[nH]cc1F [MMV1782388]
- Viability d12 (relative viability) [3, 13]: 224.858%
- PGI d5 (relative PGI release) [6, 12]: -3.006%
- PGI d12 (relative PGI release) [6, 12]: -25.8676%

SMILES: Cc1cc(C)n(O)c(=O)c1 [MMV1782389]
- Viability d12 (relative viability) [3, 13]: 156.473%
- PGI d5 (relative PGI release) [6, 12]: -2.677%
- PGI d12 (relative PGI release) [6, 12]: -25.4049%

SMILES: Cc1cc(C)n2nc(C(=O)NS(=O)(=O)c3c(C)cccc3OC(F)(F)F)nc2n1 [MMV1782402]
- Viability d12 (relative viability) [3, 13]: 179.119%
- PGI d5 (relative PGI release) [6, 12]: -1.59%
- PGI d12 (relative PGI release) [6, 12]: 1.998%

SMILES: CCNC(=O)Nc1cn2c(-c3ncc(CC)cn3)cc(-c3cccnc3)cc2n1 [MMV1782403]
- Viability d12 (relative viability) [3, 13]: 142.751%
- PGI d5 (relative PGI release) [6, 12]: -2.559%
- PGI d12 (relative PGI release) [6, 12]: 16.0574%

SMILES: O=S(=O)(NCB(O)O)c1ccc(-c2nnn[nH]2)cc1C(F)(F)F [MMV1782411]
- Viability d12 (relative viability) [3, 13]: 79.3081%
- PGI d5 (relative PGI release) [6, 12]: -0.527%
- PGI d12 (relative PGI release) [6, 12]: -17.35%

SMILES: NC(=O)C(c1ccccc1)(c1ccccc1)[C@H]1CCCN(CCc2ccc3c(c2)CCO3)C1 [MMV1782412]
- Viability d12 (relative viability) [3, 13]: 220.792%
- PGI d5 (relative PGI release) [6, 12]: 1.533%
- PGI d12 (relative PGI release) [6, 12]: 2.087%

SMILES: CC(C)(C)[C@H]1CC[C@H](CC2=C(O)C(=O)c3ccccc3C2=O)CC1 [buparvaquone]
- IC50 [1]: 2.87 ± 1.45 µM
- IC50 [2, 7]: 17.4 ± 2.09 µM
- IC50 [2, 8]: 8.47 ± 3.89 µM

SMILES: COC(=O)Nc1nc2ccccc2[nH]1 [carbendazim]
- viability at 10 µM ([3]; read-out: Viability d12 (relative viability), confirmation screen, 10 μM, triplicates, mean, 12 days): 36.4%
- viability at 10 µM ([3]; read-out: Viability d12 (relative viability), overview screen, 10 μM, singlets, 12 days, relative to DMSO control): 4.59%
- effect on GL cell viability (in words) [4]: did not reduce GL cell viability
- effect on GL cell viability (in words) ([4]; listed as Carbendazim): not able to decrease GL cell viability
- PGI d5 (relative PGI release) [6, 11]: 5.10%
- PGI d12 (relative PGI release) [6, 11]: 24.66%
- PGI d5 (relative PGI release) [6, 12]: 6.336%
- PGI d12 (relative PGI release) [6, 12]: 74.6935%

SMILES: CC(=O)Oc1ccccc1C(=O)Nc1ncc([N+](=O)[O-])s1 [nitazoxanide, reference compound]
- viability at 10 µM [3, 10]: 38.4%
- effect on metacestode vesicle viability (in words) ([3]; overview screen, 10 μM): did not meet the threshold in the metacestode viability assay
- effect on metacestode vesicle viability (in words) ([3]; overview screen, 10 μM, listed as MMV688991): did not reduce the metacestode vesicle viability
- PGI d5 (relative PGI release) [6, 12]: 37.9028%
- PGI d12 (relative PGI release) [6, 12]: 44.5196%
- activity in the PGI release assay (in words) ([6]; overview screen): showed activity in the PGI release assay
- activity in the PGI release assay (in words) ([6]; overview screen, listed as MMV688991): active in the PGI assay after twelve days

SMILES: COC(=O)Nc1nc2ccc([S+]([O-])c3ccccc3)cc2[nH]1 (centres unmarked) [oxfendazole, reference compound]
- viability at 10 µM [3, 9]: 30.6%
- viability at 10 µM [3, 10]: 15.1%
- effect on GL cell viability (in words) [4]: not able to decrease GL cell viability
- effect on GL cell viability (in words) ([4]; listed as Oxfendazole): did not reduce GL cell viability
- PGI d5 (relative PGI release) [6, 11]: 5.40%
- PGI d12 (relative PGI release) [6, 11]: 29.07%
- PGI d5 (relative PGI release) [6, 12]: -1.521%
- PGI d12 (relative PGI release) [6, 12]: 31.4286%
